Source: US20250019350A1, “SYNTHESIS OF THE PROSTATE SPECIFIC MEMBRANE ANTIGEN (PSMA) RADIOLABELED INHIBITOR [18F]DCFPYL” (Progenics Pharmaceuticals, Inc, priority 2023, published 2025)
Where “and” joins values, the source holds several entries; their conditions need not be identical. Equal values may be shown once.

Test: Radiolysis / stability of [18F]DCFPyL over time by HPLC with radiodetection (RCP, free 18F, radioactive impurities)
Assay type: physicochemical
Method: Those of ordinary skill in the art will be aware of techniques and systems for determining the radiochemical purity of a composition. In some cases, the radiochemical purity is determined using an HPLC associated with a radio-detector. Generally, the radiochemical purity is determined under ambient conditions (e.g., ambient temperature, ambient humidity, ambient light, etc.), such as in samples stored under such conditions.
Stability was assessed using reverse phase HPLC on a C18 column with a phosphate buffer/acetonitrile gradient mobile phase, and the elution profile was monitored using both UV and radiochemical detectors. Samples were analyzed either by direct injection onto the HPLC, dilution and injection or including the addition of tetraethylammonium fluoride (TEAF) into the sample before injection.
Known amounts of free ^18F either alone or spiked with TEAF were injected onto the analytic column and the eluent from the column collected over the course of a chromatogram and assaying the radioactivity using a Capintec. […] Adding TEAF into the analytic samples was incorporated into subsequent studies examining potential radiolysis of [^18F]DCFPyL to overcome some of the limitations of free ^18F quantification.
Analytical HPLC method was used. The method employs UV detection at 264 nm for chemical impurities, and an Eckert & Ziegler model B-FC-1000 gamma detector for radiochemical assays.

[1] = T = 2.5 hr, 100 mg/mL ascorbic acid pH 2.0, 256 mCi/mL at EOS
[2] = T = 2.5 hr, 20% ethanol in saline, 52 mCi/mL at EOS
[3] = T = 2.5 hr, 20% ethanol in saline, 65 mCi/mL at EOS
[4] = T = 2.5 hr, 20% ethanol in saline, 85 mCi/mL at EOS
[5] = T = 2.5 hr, control without ascorbic acid, 36% ethanol in saline, 147 mCi/mL at EOS
[6] = T = 3.0 hr, 50 mg/mL ascorbic acid pH 5.8 in final product vial, 20% ethanol, 110 mCi/mL at EOS
[7] = T = 3.0 hr, 100 mg/mL ascorbic acid pH 2.0, 256 mCi/mL at EOS
[8] = T = 3 hr, 20% ethanol in saline, 52 mCi/mL at EOS
[9] = T = 3 hr, 20% ethanol in saline, 65 mCi/mL at EOS
[10] = T = 3 hr, 20% ethanol in saline, 85 mCi/mL at EOS
[11] = T = 3 hr, 100% ethanol, 325 mCi/mL at EOS
[12] = T = 3 hr, control without ascorbic acid, 36% ethanol in saline, 147 mCi/mL at EOS
[13] = T = 3.5 hr, 50 mg/mL ascorbic acid pH 5.8 in final product vial, 20% ethanol, 110 mCi/mL at EOS
[14] = T = 3.5 hr, 100 mg/mL ascorbic acid pH 2.0, 256 mCi/mL at EOS
[15] = T = 3.5 hr, 20% ethanol in saline, 52 mCi/mL at EOS
[16] = T = 3.5 hr, 20% ethanol in saline, 65 mCi/mL at EOS
[17] = T = 3.5 hr, 20% ethanol in saline, 85 mCi/mL at EOS
[18] = T = 3.5 hr, control without ascorbic acid, 36% ethanol in saline, 147 mCi/mL at EOS
[19] = T = 4 hr, 0.5 mg/mL ascorbic acid pH 5.8, 20% ethanol, 105.8 mCi/mL at EOS
[20] = T = 4 hr, 1 mg/mL ascorbic acid pH 5.8, 20% ethanol, 107.0 mCi/mL at EOS
[21] = T = 4 hr, 5 mg/mL ascorbic acid pH 5.8, 20% ethanol, 99.0 mCi/mL at EOS
[22] = T = 4 hr, 20 mg/mL sodium citrate, 20% ethanol, 104.8 mCi/mL at EOS
[23] = T = 4 hr, 50 mg/mL ascorbic acid pH 5.8, 20% ethanol, 139.7 mCi/mL at EOS
[24] = T = 4.0 hr, 50 mg/mL ascorbic acid pH 5.8 in final product vial, 20% ethanol, 110 mCi/mL at EOS
[25] = T = 4.0 hr, 100 mg/mL ascorbic acid pH 2.0, 256 mCi/mL at EOS
[26] = T = 4 hr, 20% ethanol in saline, 52 mCi/mL at EOS
[27] = T = 4 hr, 20% ethanol in saline, 65 mCi/mL at EOS
[28] = T = 4 hr, 20% ethanol in saline, 85 mCi/mL at EOS
[29] = T = 4 hr, 100% ethanol, 325 mCi/mL at EOS
[30] = T = 4 hr, control without ascorbic acid, 36% ethanol in saline, 147 mCi/mL at EOS
[31] = T = 5 hr, 100% ethanol, 325 mCi/mL at EOS

SMILES: O=C(O)CC[C@H](NC(=O)N[C@@H](CCCCNC(=O)c1ccc([18F])nc1)C(=O)O)C(=O)O [Lot 18F-DCFPyL, 2-(3-{1-carboxy-5-[(6-[18F]fluoro-pyridine-3-carbonyl)-amino]-pentyl}ureido)-pentanedioic acid]
- 18F-DCFPyL (RCP) [1]: 98.71%
- Free 18F [1]: 0.31%
- RT 12.0 radioactive impurity [1]: 0.52%
- RT 12.2 radioactive impurity [1]: 0.46%
- 18F-DCFPyL (RCP) [2]: 98.61%
- Free F-18 [2]: 0.86%
- RT 5.0 radioactive impurity [2]: 0.53%
- 18F-DCFPyL (RCP) [3]: 95.36%
- Free F-18 [3]: 3.97%
- RT 5.0 radioactive impurity [3]: 0.41%
- RT 5.9 radioactive impurity [3]: 0.26%
- 18F-DCFPyL (RCP) [4]: 95.06%
- Free F-18 [4]: 4.29%
- RT 5.0 radioactive impurity [4]: 0.31%
- RT 5.9 radioactive impurity [4]: 0.35%
- 18F-DCFPyL (RCP) [5]: 88.79%
- Free F-18 [5]: 9.66%
- RT 5.0 radioactive impurity [5]: 0.62%
- RT 5.9 radioactive impurity [5]: 0.93%
- 18F-DCFPyL (RCP) [6]: 99.25%
- Free 18F [6]: 0.35%
- RT 5.0 radioactive impurity [6]: 0.39%
- RT 5.9 radioactive impurity [6]: 0.27%
- 18F-DCFPyL (RCP) [7]: 98.46%
- Free 18F [7]: 0.29%
- RT 12.0 radioactive impurity [7]: 0.69%
- RT 12.2 radioactive impurity [7]: 0.57%
- 18F-DCFPyL (RCP) [8]: 98.53%
- Free F-18 [8]: 0.99%
- RT 5.0 radioactive impurity [8]: 0.48%
- 18F-DCFPyL (RCP) [9]: 95.64%
- Free F-18 [9]: 4.03%
- RT 5.0 radioactive impurity [9]: 0.34%
- 18F-DCFPyL (RCP) [10]: 95.10%
- Free F-18 [10]: 4.26%
- RT 5.0 radioactive impurity [10]: 0.37%
- RT 5.9 radioactive impurity [10]: 0.27%
- 18F-DCFPyL (RCP) [11]: 95.71%
- Free F-18 [11]: 4.29%
- 18F-DCFPyL (RCP) [12]: 88.94%
- Free F-18 [12]: 9.49%
- RT 5.0 radioactive impurity [12]: 0.70%
- RT 5.9 radioactive impurity [12]: 0.87%
- 18F-DCFPyL (RCP) [13]: 99.46%
- Free 18F [13]: 0.24%
- RT 5.0 radioactive impurity [13]: 0.31%
- 18F-DCFPyL (RCP) [14]: 98.03%
- Free 18F [14]: 0.35%
- RT 12.0 radioactive impurity [14]: 0.88%
- RT 12.2 radioactive impurity [14]: 0.75%
- 18F-DCFPyL (RCP) [15]: 98.55%
- Free F-18 [15]: 0.94%
- RT 5.0 radioactive impurity [15]: 0.52%
- 18F-DCFPyL (RCP) [16]: 95.44%
- Free F-18 [16]: 4.17%
- RT 5.0 radioactive impurity [16]: 0.39%
- 18F-DCFPyL (RCP) [17]: 95.14%
- Free F-18 [17]: 4.51%
- RT 5.0 radioactive impurity [17]: 0.35%
- 18F-DCFPyL (RCP) [18]: 88.90%
- Free F-18 [18]: 9.56%
- RT 5.0 radioactive impurity [18]: 0.59%
- RT 5.9 radioactive impurity [18]: 0.95%
- 18F-DCFPyL (% RCP) [19]: 98.64%
- Free F-18 [19]: 1.36%
- 18F-DCFPyL (% RCP) [20]: 98.56%
- Free F-18 [20]: 1.44%
- Free F-18 (T = 4 hr, 1 mg/mL sodium ascorbate, 20% ethanol, 111.5 mCi/mL at EOS): 2.61%
- 18F-DCFPyL (% RCP) [21]: 99.23%
- Free F-18 [21]: 0.77%
- Free F-18 (T = 4 hr, 5 mg/mL sodium ascorbate, 20% ethanol, 114.6 mCi/mL at EOS): 1.23%
- Free F-18 [22]: 20.65%
- RT 3.4 radioactive impurity [22]: 0.32%
- RT 3.7 radioactive impurity [22]: 0.35%
- 18F-DCFPyL (% RCP) [23]: 99.69%
- Free F-18 [23]: 0.31%
- RT 4.8 radioactive impurity (T = 4 hr, 50 mg/mL ascorbic acid pH 5.8, 20% ethanol, 139.7 mCi/mL at EOS, MPA = 0.25% of main peak): <MPA
- 18F-DCFPyL (RCP) [24]: above 99%
- Free 18F [24]: 0.26%
- RT 5.0 radioactive impurity [24]: 0.37%
- 18F-DCFPyL (RCP) [25]: 98.0% and 97.98%
- Free 18F [25]: 0.37%
- RT 12.0 radioactive impurity [25]: 0.96%
- RT 12.2 radioactive impurity [25]: 0.69%
- 18F-DCFPyL (RCP) (T = 4.0 hr, 100 mg/mL ascorbic acid pH 2.0, 256 mCi/mL at EOS, listed as [^18F]DCFPYL): 98.0%
- 18F-DCFPyL (RCP) [26]: 98.53%
- Free F-18 [26]: 0.98%
- RT 5.0 radioactive impurity [26]: 0.49%
- 18F-DCFPyL (RCP) [27]: 95.50%
- Free F-18 [27]: 4.23%
- RT 5.0 radioactive impurity [27]: 0.27%
- 18F-DCFPyL (RCP) [28]: 94.93%
- Free F-18 [28]: 4.73%
- RT 5.0 radioactive impurity [28]: 0.34%
- 18F-DCFPyL (RCP) [29]: 95.60%
- Free F-18 [29]: 4.40%
- 18F-DCFPyL (RCP) [30]: 89% and 89.06%
- Free F-18 [30]: 9.27%
- RT 5.0 radioactive impurity [30]: 0.71%
- RT 5.9 radioactive impurity [30]: 0.96%
- 18F-DCFPyL (RCP) (T = 4 hr, control without ascorbic acid, 36% ethanol in saline, 147 mCi/mL at EOS, listed as [^18F]DCFPYL): 89%
- 18F-DCFPyL (RCP) [31]: 95.58%
- Free F-18 [31]: 4.42%
- Free F-18 (T = 6 hr, 0.5 mg/mL ascorbic acid pH 5.8, 20% ethanol, 105.8 mCi/mL at EOS): 1.44%
- 18F-DCFPyL (% RCP) (T = 6 hr, 1 mg/mL ascorbic acid pH 5.8, 20% ethanol, 107.0 mCi/mL at EOS): 98.43%
